Test systems include HCC-2998 colon; MALME-3M melanoma; MDA-MB-435; SF-295 CNS; DU-145 prostate; BT-549 breast; EKVX NSCLC; NCI-H23 lung; A549 NSCLC; SK-MEL-2 melanoma; KM12 colon; MDA-MB-231 breast; SF-539 CNS; SN12C renal; NCI-H522 lung; HS 578T breast; CAKI-1 renal; UO-31 renal; LOX IMVI melanoma.
Common to all, as to experiment: growth of human tumour cells (NCI), 48 h

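All cell lines were grown in 96-well plates and treated with compound for 48 hours. TGI is the concentration that stops growth completely.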

Regarding `Clc1ncnc2c1nc(C#Cc1ccccc1)n2Cc1ccccc1`, the TGI in the assay on HCC-2998 colon was 27 µM; in the assay on MALME-3M melanoma, above 100 µM; in the assay with MDA-MB-435 it was 43 µM; in the assay with SF-295 CNS, above 100 µM; with DU-145 prostate, 29 µM; in the assay with BT-549 breast it was 49.8 µM. In addition, the TGI was 29.3 µM in the assay on EKVX NSCLC; 42.8 µM in the assay with NCI-H23 lung; above 100 µM with A549 NSCLC; 98.4 µM with SK-MEL-2 melanoma; above 100 µM in the assay with KM12 colon; 71 µM in the assay on MDA-MB-231 breast. Moreover, the TGI is 83.8 µM in the assay on SF-539 CNS; 60 µM in the assay on SN12C renal; 36.7 µM with NCI-H522 lung; above 100 µM in the assay with HS 578T breast; 37.1 µM in the assay on CAKI-1 renal; 5.47 µM with UO-31 renal. In the assay on LOX IMVI melanoma, this compound returned a TGI of 28.3 µM.
As for `Cc1ccc(C(=O)C#Cc2cn(C3CC(O)C(CO)O3)c(=O)[nH]c2=O)cc1` (stereo unspecified), the TGI is above 100 µM in the assay on HCC-2998 colon; 29.1 µM with MALME-3M melanoma; above 100 µM in the assay on MDA-MB-435; above 100 µM in the assay with SF-295 CNS; above 100 µM in the assay on DU-145 prostate; above 100 µM in the assay on BT-549 breast. The TGI in the assay on EKVX NSCLC, with NCI-H23 lung, in the assay on A549 NSCLC, in the assay with SK-MEL-2 melanoma, in the assay on KM12 colon and in the assay with MDA-MB-231 breast was above 100 µM each time. In addition, the TGI is above 100 µM with SF-539 CNS; above 100 µM in the assay on SN12C renal; 23.9 µM in the assay on NCI-H522 lung; above 100 µM in the assay on HS 578T breast; above 100 µM with CAKI-1 renal; above 100 µM in the assay with UO-31 renal. In the assay on LOX IMVI melanoma, this compound yielded a TGI above 100 µM.
In the case of `CSc1c(C(=O)Nc2ccc(Cl)cc2)c(N)[nH]c(=O)c1C#N`, the TGI is above 90.2 µM in the assay on HCC-2998 colon; above 100 µM in the assay with MALME-3M melanoma; above 70.9 µM with MDA-MB-435; 83.6 µM in the assay on SF-295 CNS; above 100 µM with DU-145 prostate; above 91.1 µM with BT-549 breast. For the same compound, the TGI is above 80 µM in the assay with EKVX NSCLC; 53.3 µM in the assay on NCI-H23 lung; above 100 µM in the assay on A549 NSCLC; 32.2 µM in the assay on SK-MEL-2 melanoma; above 100 µM with KM12 colon; above 60.9 µM in the assay with MDA-MB-231 breast. Moreover, the TGI in the assay on SF-539 CNS was 68.9 µM; with SN12C renal, above 82.2 µM; in the assay with NCI-H522 lung, 51.7 µM; with HS 578T breast, above 100 µM; in the assay on CAKI-1 renal, above 61.1 µM; in the assay with UO-31 renal, 59 µM. The TGI in the assay on LOX IMVI melanoma is above 25.8 µM.
Regarding `O=C1C(N=Nc2ccc(-c3nc4ccccc4o3)cc2)NC(=S)N1c1ccccc1` (stereo unspecified), the TGI in the assay with HCC-2998 colon, in the assay with MALME-3M melanoma, in the assay on MDA-MB-435, in the assay with SF-295 CNS, in the assay with DU-145 prostate and in the assay with BT-549 breast was above 100 µM in each case. Besides, the TGI in the assay on EKVX NSCLC, in the assay with NCI-H23 lung, in the assay with A549 NSCLC, in the assay on SK-MEL-2 melanoma, in the assay with KM12 colon and in the assay on MDA-MB-231 breast was above 100 µM each time. Moreover, the TGI in the assay on SF-539 CNS, in the assay with SN12C renal, in the assay on NCI-H522 lung, in the assay on HS 578T breast, in the assay with CAKI-1 renal and with UO-31 renal was above 100 µM each time. Moreover, the TGI in the assay on LOX IMVI melanoma was above 100 µM.
Consider `N#Cc1ccc(OCc2ccc3nc(-c4ccccc4)c(Cl)nc3c2)cc1`, for which the TGI in the assay with HCC-2998 colon, in the assay with MALME-3M melanoma, in the assay on MDA-MB-435, in the assay with SF-295 CNS, in the assay with DU-145 prostate and in the assay on BT-549 breast was above 100 µM throughout. Also, the TGI in the assay with EKVX NSCLC, in the assay with NCI-H23 lung, in the assay on A549 NSCLC, with SK-MEL-2 melanoma, in the assay on KM12 colon and with MDA-MB-231 breast was above 100 µM in each case. In addition, the TGI in the assay on SF-539 CNS, in the assay on SN12C renal, in the assay on NCI-H522 lung, in the assay with HS 578T breast, with CAKI-1 renal and in the assay on UO-31 renal was above 100 µM in each case. In the assay with LOX IMVI melanoma, this compound gave a TGI above 100 µM.
In the case of `Cc1nnc2sc(-c3ccc(-c4ccccc4Cl)o3)nn12`, the TGI was 64.4 µM in the assay on HCC-2998 colon; above 100 µM in the assay on MALME-3M melanoma; 44 µM in the assay with MDA-MB-435; above 100 µM with SF-295 CNS; above 100 µM with DU-145 prostate; 60.3 µM in the assay with BT-549 breast. Besides, the TGI was above 100 µM with EKVX NSCLC; 74.2 µM in the assay on NCI-H23 lung; above 100 µM in the assay on A549 NSCLC; 86.7 µM in the assay with SK-MEL-2 melanoma; above 100 µM with KM12 colon; above 100 µM with MDA-MB-231 breast. For the same compound, the TGI with SF-539 CNS was 45.9 µM; in the assay on SN12C renal it was above 100 µM; with NCI-H522 lung, 78.4 µM; with HS 578T breast, above 100 µM; with CAKI-1 renal it was above 100 µM; in the assay on UO-31 renal it was above 100 µM. Also, the TGI with LOX IMVI melanoma was 53.2 µM.
`CN(N)/N=N/c1nc[nH]c1C(N)=O`: the TGI was above 42.2 µM in the assay on HCC-2998 colon; above 100 µM with MALME-3M melanoma; above 100 µM in the assay with MDA-MB-435; above 70.9 µM with SF-295 CNS; above 100 µM with DU-145 prostate; above 100 µM in the assay on BT-549 breast. Further, the TGI in the assay with EKVX NSCLC was above 100 µM; in the assay with NCI-H23 lung, above 100 µM; in the assay on A549 NSCLC it was above 100 µM; in the assay with SK-MEL-2 melanoma, above 100 µM; in the assay on KM12 colon it was above 82.4 µM; with MDA-MB-231 breast, above 32.2 µM. For the same compound, the TGI with SF-539 CNS was above 100 µM; in the assay on SN12C renal, above 57.2 µM; with NCI-H522 lung, above 100 µM; in the assay with HS 578T breast, above 100 µM; in the assay with CAKI-1 renal, 55.2 µM; in the assay on UO-31 renal, above 62.2 µM. This compound also displayed a TGI in the assay with LOX IMVI melanoma above 100 µM.
In the case of `c1ccc2c(c1)CCN2CCc1c[nH]c2ccccc12`, the TGI with HCC-2998 colon, in the assay on MALME-3M melanoma, in the assay on MDA-MB-435, with SF-295 CNS, in the assay with DU-145 prostate and with BT-549 breast was above 10 µM each time. The TGI in the assay with EKVX NSCLC, in the assay with NCI-H23 lung, in the assay with A549 NSCLC, in the assay with SK-MEL-2 melanoma, with KM12 colon and in the assay with MDA-MB-231 breast was above 10 µM in each case. Also, the TGI in the assay on SF-539 CNS, in the assay with SN12C renal, in the assay with NCI-H522 lung, in the assay with HS 578T breast, in the assay on CAKI-1 renal and in the assay on UO-31 renal was above 10 µM in each case. In the assay on LOX IMVI melanoma, this compound registered a TGI above 10 µM.
Consider `N=c1oc2ccc(Cl)cc2cc1C(=O)Nc1ccccc1`, for which the TGI in the assay with HCC-2998 colon, in the assay with MALME-3M melanoma, in the assay on MDA-MB-435, in the assay on SF-295 CNS, in the assay with DU-145 prostate and in the assay with BT-549 breast was above 100 µM in each case. The TGI in the assay with EKVX NSCLC, in the assay with NCI-H23 lung, with A549 NSCLC, in the assay with SK-MEL-2 melanoma, in the assay with KM12 colon and in the assay on MDA-MB-231 breast was above 100 µM in each case. Further, the TGI was above 100 µM in the assay on SF-539 CNS; above 100 µM with SN12C renal; above 100 µM in the assay with NCI-H522 lung; above 59.6 µM in the assay with HS 578T breast; above 100 µM in the assay with CAKI-1 renal; above 100 µM in the assay with UO-31 renal. In the assay on LOX IMVI melanoma, this compound returned a TGI above 100 µM.

The values are drawn from PubChem BioAssay (NCI).
